The source made the active and inactive calls. The rule behind the calls is not given here.
Assays:
Escherichia coli [1] = assay: Antimicrobial activity against Escherichia coli H10407 assessed as growth inhibition at 16 ug/ml; format: functional; details: ETEC H10407
Escherichia coli [2] = assay: Antimicrobial activity against Escherichia coli H10407 assessed as decrease in cell density at 16 ug/ml after 4 hrs in presence of 4 mM glycocholic acid; format: functional, ETEC H10407
Escherichia coli [3] = assay: Antimicrobial activity against Escherichia coli H10407 assessed as decrease in cell density at 16 ug/ml after 4 hrs; format: functional; details: ETEC H10407
Escherichia coli [4] = assay: Antimicrobial activity against Escherichia coli H10407 assessed as decrease in cell density at 16 ug/ml after 4 hrs in presence of 4 mM taurocholic acid; format: functional, ETEC H10407
Escherichia coli [5] = assay: Antimicrobial activity against Escherichia coli H10407 assessed as decrease in cell density at 16 ug/ml after 4 hrs in presence of 4 mM deoxycholic acid; format: functional, ETEC H10407
Escherichia coli [6] = assay: Antimicrobial activity against Escherichia coli H10407 assessed as decrease in cell density at 16 ug/ml after 4 hrs in presence of 4 mM cholic acid; format: functional, ETEC H10407
Escherichia coli [7] = assay: Inhibition of RNA synthesis in Escherichia coli H10407 assessed as inhibition of beta-galactosidase expression relative to control; format: functional; details: ETEC H10407
Escherichia coli [8] = assay: Bacteriostatic activity against Escherichia coli H10407 at 8 ug/ml in presence of bile acid relative to absence of bile acid; format: functional, ETEC H10407
Escherichia coli [9] = assay: Antimicrobial activity against Escherichia coli H10407 assessed as decrease in cell density at 16 ug/ml after 4 hrs in presence of 4 mM chenodeoxycholic acid; format: functional, ETEC H10407
Escherichia coli [10] = assay: Antimicrobial activity against Escherichia coli H10407 assessed as decrease in cell density at 16 ug/ml after 4 hrs in presence of 4 mM lithocholic acid; format: functional, ETEC H10407
Escherichia coli [11] = assay: Antimicrobial activity against Escherichia coli H10407 assessed as decrease in cell density at 16 ug/ml after 4 hrs in presence of 4 mM pooled synthetic bile acid; format: functional, ETEC H10407
Escherichia coli [12] = assay: Inhibition of RNA synthesis in Escherichia coli H10407 assessed as inhibition of beta-galactosidase expression at 16 ug/ml in presence of […] bile acid; format: functional, ETEC H10407
Escherichia coli [13] = assay: Decrease in protein expression in Escherichia coli H10407 at 16 ug/ml after 4 hrs; format: functional, ETEC H10407; design: scale not given: the % may be the effect or the level left
Escherichia coli [14] = assay: Antimicrobial activity against Escherichia coli H10407 assessed as decrease in cell density at 16 ug/ml after 4 hrs in presence of 4 mM human bile acid; format: functional, ETEC H10407
Escherichia coli [15] = assay: Inhibition of RNA synthesis in Escherichia coli H10407 assessed as inhibition of beta-galactosidase expression at 8 ug/ml in presence of 4 mM bile acid; format: functional, ETEC H10407
Escherichia coli [16] = assay: Bacteriostatic activity against Escherichia coli H10407 at 16 ug/ml in presence of bile acid relative to absence of bile acid; format: functional, ETEC H10407
Escherichia coli [17] = assay: Inhibition of RNA synthesis in Escherichia coli H10407 assessed as inhibition of beta-galactosidase expression at 32 ug/ml in presence of 4 mM bile acid; format: functional, ETEC H10407

SMILES: CO[C@H]1/C=C/O[C@@]2(C)Oc3c(C)c(O)c4c(O)c(c5c(nc6cc(C)ccn65)c4c3C2=O)NC(=O)/C(C)=C\C=C\[C@H](C)[C@H](O)[C@@H](C)[C@@H](O)[C@@H](C)[C@H](OC(C)=O)[C@@H]1C [RIFAXIMIN]
- inhibition (Escherichia coli [1]): Active
- inhibition (INH) (Escherichia coli [2]): 80.8%
- Activity (Escherichia coli [3]): Active
- inhibition (INH) (Escherichia coli [4]): 77.6%
- inhibition (INH) (Escherichia coli [5]): 93.8%
- inhibition (INH) (Escherichia coli [6]): 95.5%
- inhibition (Escherichia coli [7]): Active
- fold change (FC) (Escherichia coli [8]): 2
- inhibition (INH) (Escherichia coli [9]): 89.2%
- inhibition (INH) (Escherichia coli [10]): 43.9%
- inhibition (INH) (Escherichia coli [11]): 70.6%
- inhibition (INH) (Escherichia coli [12]): 49%
- Activity (Escherichia coli [13]): 59%
- inhibition (INH) (Escherichia coli [14]): 72.8%
- inhibition (INH) (Escherichia coli [15]): 33%
- fold change (FC) (Escherichia coli [16]): 5.5
- inhibition (INH) (Escherichia coli [17]): 82%

— ChEMBL document CHEMBL1671703, “Bile acids improve the antimicrobial effect of rifaximin” (2010)
